Experimental data published in the NIST ThermoML archive (doi:10.1021/je900974u).

Key:
[1] = molar heat capacity at constant pressure; conditions: 101.33 kPa, Liquid, Vacuum adiabatic calorimetry
[2] = for Triple point temperature: Crystal; for mass density: 101.33 kPa, Liquid, Pycnometric method
[3] = Molar enthalpy of transition or fusion; conditions: Crystal; Adiabatic calorimetry

CCOS(=O)(=O)[O-].CCn1cc[n+](C)c1 [1-ethyl-3-methylimidazolium ethyl sulfate]
[1]
Conditions | molar heat capacity at constant pressure [J/K/mol]
191.13 K | 354.4
193.05 K | 354.6
194.98 K | 354.9
196.91 K | 355.1
198.84 K | 355.3
200.77 K | 355.7
202.71 K | 355.9
204.64 K | 356.3
206.57 K | 356.6
208.5 K | 356.9
210.44 K | 357.2
212.37 K | 357.5
214.3 K | 357.9
216.24 K | 358.3
218.18 K | 358.7
220.11 K | 359.2
222.05 K | 359.6
223.98 K | 360.1
225.92 K | 360.4
227.86 K | 360.9
229.8 K | 361.4
231.74 K | 362.1
233.68 K | 362.5
235.62 K | 363
237.56 K | 363.5
239.5 K | 364
241.43 K | 364.6
243.37 K | 365.1
245.32 K | 365.6
247.26 K | 366.2
249.2 K | 366.8
251.14 K | 367.4
253.08 K | 367.9
255.02 K | 368.5
256.96 K | 369.1
258.9 K | 369.9
260.85 K | 370.3
262.79 K | 371
264.73 K | 371.7
266.67 K | 372.1
268.62 K | 372.7
270.55 K | 373.4
272.5 K | 374.1
274.44 K | 374.8
276.38 K | 375.1
278.32 K | 375.6
280.25 K | 376.5
282.2 K | 377
284.14 K | 377.6
286.08 K | 378.2
288.03 K | 378.7
289.97 K | 379.4
291.91 K | 380.2
293.85 K | 381
295.79 K | 381.9
297.74 K | 382.6
299.68 K | 383.5
301.62 K | 384.2
303.56 K | 385
305.51 K | 385.9
307.45 K | 386.7
309.39 K | 387.5
311.33 K | 388.6
313.28 K | 389.5
315.22 K | 390.4
317.16 K | 391.4
319.11 K | 392.2
321.05 K | 393.2
322.99 K | 394
324.93 K | 395
326.88 K | 395.9
328.82 K | 396.9
330.77 K | 397.7
332.71 K | 398.5
334.66 K | 399.7
336.6 K | 400.5
338.54 K | 401.4
340.49 K | 402.7
342.43 K | 403.5
344.38 K | 404.4
346.32 K | 405.7
348.27 K | 406.7
350.21 K | 407.8
352.15 K | 408.8
354.1 K | 409.7
356.04 K | 410.8
357.98 K | 411.9
359.92 K | 412.8
361.86 K | 413.9
363.8 K | 414.9
365.75 K | 415.9
367.69 K | 416.8

CCCCCCCC[n+]1ccn(C)c1.F[B-](F)(F)F [1-methyl-3-octylimidazolium tetrafluoroborate]
[1]
Conditions | molar heat capacity at constant pressure [J/K/mol]
195.88 K | 466.3
197.4 K | 465.8
198.93 K | 465.5
200.46 K | 464.9
202.1 K | 464.6
203.86 K | 464.1
205.61 K | 463.8
207.37 K | 463.5
209.14 K | 463.2
210.91 K | 463.2
212.69 K | 463.2
214.47 K | 463.2
216.25 K | 463.5
218.04 K | 463.5
218.59 K | 463.5
219.83 K | 463.8
220.61 K | 463.8
221.62 K | 464.1
222.57 K | 464.1
223.42 K | 464.4
224.52 K | 464.6
225.22 K | 464.6
226.48 K | 464.9
227.02 K | 464.9
228.43 K | 465.5
228.83 K | 465.5
230.39 K | 466.1
230.63 K | 466.3
232.35 K | 466.3
234.3 K | 466.6
236.26 K | 467.5
238.22 K | 468
240.18 K | 468.6
242.14 K | 469.4
244.1 K | 470.3
246.06 K | 470.8
247.53 K | 471.7
248.02 K | 471.7
249.36 K | 472.5
249.99 K | 472.5
251.18 K | 473.1
251.95 K | 473.4
253 K | 473.7
253.91 K | 474.2
254.83 K | 474.5
255.87 K | 475.1
256.65 K | 475.4
257.83 K | 476.2
258.48 K | 476.2
260.3 K | 477.3
262.13 K | 478.2
263.95 K | 479
265.78 K | 480.1
267.6 K | 481
269.43 K | 482.1
271.26 K | 483
273.08 K | 483.8
274.91 K | 484.6
276.74 K | 486.1
278.57 K | 486.9
280.39 K | 488
282.22 K | 488.9
284.05 K | 490
285.87 K | 490.8
287.7 K | 492
289.53 K | 493.1
291.35 K | 494.2
293.18 K | 495.1
295 K | 496.2
296.83 K | 497.3
298.65 K | 498.2
300.48 K | 499.3
302.36 K | 500.4
304.29 K | 501.6
306.22 K | 502.7
308.16 K | 503.8
310.09 K | 504.9
312.02 K | 505.8
313.95 K | 507.2
315.89 K | 508.3
317.82 K | 509.4
319.75 K | 510.6
321.68 K | 512
323.62 K | 513.1
325.55 K | 514.2
327.48 K | 515.1
329.41 K | 516.5
331.34 K | 517.9
333.27 K | 519.3
335.19 K | 520.4
337.12 K | 521.8
339.05 K | 523
340.97 K | 524.4
342.9 K | 525.5
344.82 K | 526.6
346.75 K | 528
348.68 K | 529.5
350.6 K | 530.9
352.53 K | 532.3
354.45 K | 533.4
356.38 K | 534.8
358.3 K | 535.9
360.22 K | 537.3
362.14 K | 539
364.06 K | 539.9
365.98 K | 541.3
367.89 K | 542.7

Conditions | Molar enthalpy of transition or fusion [kcal/mol] | Triple point temperature [K]
[2] | – | 245.75
[3] | 3.513 | –

CCC[n+]1ccn(C)c1.[Br-] [1-methyl-3-propylimidazolium bromide]
Conditions | mass density [kg/m3] | molar heat capacity at constant pressure [J/K/mol]
[1], 222.57 K | – | 260
[1], 224.61 K | – | 260.5
[1], 226.66 K | – | 260.8
[1], 228.71 K | – | 261.3
[1], 230.76 K | – | 261.7
[1], 232.81 K | – | 262.1
[1], 234.85 K | – | 262.7
[1], 236.9 K | – | 263.1
[1], 238.95 K | – | 263.5
[1], 241 K | – | 264
[1], 243.05 K | – | 264.4
[1], 245.1 K | – | 264.9
[1], 247.15 K | – | 265.4
[1], 249.2 K | – | 266
[1], 251.25 K | – | 266.5
[1], 253.31 K | – | 267.1
[1], 255.36 K | – | 267.6
[1], 257.41 K | – | 268.2
[1], 259.46 K | – | 268.8
[1], 261.51 K | – | 269.5
[1], 263.56 K | – | 270
[1], 265.62 K | – | 270.6
[1], 267.67 K | – | 271.2
[1], 269.72 K | – | 271.8
[1], 271.77 K | – | 272.5
[1], 273.82 K | – | 273.2
[1], 275.87 K | – | 273.8
[1], 277.92 K | – | 274.5
[1], 279.98 K | – | 275.1
[1], 282.03 K | – | 275.8
[1], 284.08 K | – | 276.4
[1], 286.13 K | – | 277
[1], 288.18 K | – | 277.8
[1], 290.23 K | – | 278.4
[1], 292.28 K | – | 279.1
[1], 294.33 K | – | 279.7
[1], 296.39 K | – | 280.4
[1], 298.44 K | – | 281
[1], 300.49 K | – | 281.7
[1], 302.54 K | – | 282.4
[1], 304.59 K | – | 283
[1], 306.64 K | – | 283.7
[1], 308.7 K | – | 284.4
[1], 310.75 K | – | 285
[1], 312.8 K | – | 285.7
[1], 314.85 K | – | 286.4
[1], 316.91 K | – | 287.1
[1], 318.96 K | – | 287.7
[1], 321.01 K | – | 288.5
[1], 323.07 K | – | 289.2
[1], 325.12 K | – | 289.8
[1], 327.18 K | – | 290.6
[1], 329.23 K | – | 291.4
[1], 331.28 K | – | 292.1
[1], 333.34 K | – | 292.9
[1], 335.39 K | – | 293.6
[1], 337.45 K | – | 294.3
[1], 339.5 K | – | 295.1
[1], 341.56 K | – | 295.9
[1], 343.61 K | – | 296.7
[1], 345.67 K | – | 297.3
[1], 347.73 K | – | 298.2
[1], 349.78 K | – | 299.2
[1], 351.84 K | – | 299.9
[1], 353.9 K | – | 300.7
[1], 355.95 K | – | 301.4
[1], 358.01 K | – | 302.2
[1], 360.06 K | – | 303.1
[1], 362.12 K | – | 303.8
[1], 364.17 K | – | 304.6
[1], 366.23 K | – | 305.4
[1], 368.28 K | – | 306.3
[2], 302.71 K | 1355.9 | –
[2], 307.7 K | 1352.4 | –
[2], 312.7 K | 1348.9 | –
[2], 317.71 K | 1345.4 | –
[2], 322.7 K | 1341.9 | –
[2], 327.7 K | 1338.5 | –
[2], 332.7 K | 1335 | –
[2], 337.69 K | 1331.6 | –
[2], 342.68 K | 1328.2 | –
[2], 347.68 K | 1324.9 | –
[2], 352.67 K | 1321.6 | –
[2], 357.67 K | 1318.3 | –

Conditions | Molar enthalpy of transition or fusion [kcal/mol] | Triple point temperature [K]
[2] | – | 309.56
[3] | 4.589 | –
